Experimental data published in US10689381B2 (priority 2017, dated 2020).
Like-named read-outs stand apart in the source and are kept apart here.

Assays:
L1210 = test: cells; assay type: cell-based, mouse
Description: (§1) A population of cells (>1×10^6 cells/mL as determined with a hemocytometer) was diluted with Dulbecco's Modified Eagle Medium (DMEM, Gibco) containing 10% fetal bovine serum (FBS, Gibco) to give a final concentration of 30,000 cells/mL. To each well of a 96-well plate (Corning® Costar®) was added 100 μL of the cell media solution with a multichannel pipet.
(§2) The test compounds were then added to the plate as follows: test compounds were diluted in DMSO to a concentration of 1 mM. 10-Fold serial dilutions in DMSO were next performed on a separate 96-well plate. Fresh culture media (100 μL) was added to each well of cells resulting in 200 μL of medium per well followed by 2 μL of each test agent. Compounds were tested in duplicate (n=2-8 times) at six concentrations between 0-1000 nM or 0-10000 nM. Following the addition of compound, cultures were incubated for an additional 72 hours.
(§3) The plates were incubated at 37° C. for 5 minutes (L1210) or 15 min (HCT116 and HCT116/VM46).

HCT116 = test: cells; assay type: cell-based, human; settings: for IC50: read-out: IC50 HCT116; for potency relative to vinblastine (more potent): vinblastine-sensitive cell lines
Description: as §1, §2, §3

CCC1(NC(=O)C2CCc3ccccc3C2)CC2CN(CCc3c([nH]c4ccccc34)C(C(=O)OC)(c3cc4c(cc3OC)N(C)C3C(O)(C(=O)OC)C(OC(C)=O)C5(CC)C=CCN6CCC43C65)C2)C1 (mixture of isomers) [Compound 122]
IC50 (L1210; Table 4): 420 nM | IC50 (HCT116; Table 4): 580 nM

CCC(=O)NC1(CC)CC2CN(CCc3c([nH]c4ccccc34)C(C(=O)OC)(c3cc4c(cc3OC)N(C)C3C(O)(C(=O)OC)C(OC(C)=O)C5(CC)C=CCN6CCC43C65)C2)C1 (stereo not shown) [Compound 12]
IC50 (L1210; Table 1): 60 nM | IC50 (HCT116; Table 1): 60 nM

CC[C@]1(NC(=O)C(C)C)C[C@H]2CN(CCc3c([nH]c4ccccc34)[C@@](C(=O)OC)(c3cc4c(cc3OC)N(C)[C@H]3[C@@](O)(C(=O)OC)[C@H](OC(C)=O)[C@]5(CC)C=CCN6CC[C@]43[C@@H]65)C2)C1 [Compound 13]
IC50 (L1210; Table 1): 70 nM | IC50 (HCT116; Table 1): 90 nM

CC[C@]1(NC(=O)C(C)(C)C)C[C@H]2CN(CCc3c([nH]c4ccccc34)[C@@](C(=O)OC)(c3cc4c(cc3OC)N(C)[C@H]3[C@@](O)(C(=O)OC)[C@H](OC(C)=O)[C@]5(CC)C=CCN6CC[C@]43[C@@H]65)C2)C1 [Compound 14]
IC50 (L1210; Table 1): 2800 nM | IC50 (HCT116; Table 1): 3600 nM

CCCCCC(=O)N[C@@]1(CC)C[C@H]2CN(CCc3c([nH]c4ccccc34)[C@@](C(=O)OC)(c3cc4c(cc3OC)N(C)[C@H]3[C@@](O)(C(=O)OC)[C@H](OC(C)=O)[C@]5(CC)C=CCN6CC[C@]43[C@@H]65)C2)C1 [Compound 15]
IC50 (L1210; Table 1): 55 nM | IC50 (HCT116; Table 1): 40 nM

CCC1(NC(=O)C2CC2)CC2CN(CCc3c([nH]c4ccccc34)C(C(=O)OC)(c3cc4c(cc3OC)N(C)C3C(O)(C(=O)OC)C(OC(C)=O)C5(CC)C=CCN6CCC43C65)C2)C1 (stereo not shown) [Compound 17]
IC50 (L1210; Table 1): 5.5 nM | IC50 (HCT116; Table 1): 6.1 nM

CC[C@]1(NC(=O)C2CCCC2)C[C@H]2CN(CCc3c([nH]c4ccccc34)[C@@](C(=O)OC)(c3cc4c(cc3OC)N(C)[C@H]3[C@@](O)(C(=O)OC)[C@H](OC(C)=O)[C@]5(CC)C=CCN6CC[C@]43[C@@H]65)C2)C1 [Compound 19]
IC50 (L1210; Table 1): 30 nM | IC50 (HCT116; Table 1): 25 nM

CC[C@]1(NC(=O)C2CCCCC2)C[C@H]2CN(CCc3c([nH]c4ccccc34)[C@@](C(=O)OC)(c3cc4c(cc3OC)N(C)[C@H]3[C@@](O)(C(=O)OC)[C@H](OC(C)=O)[C@]5(CC)C=CCN6CC[C@]43[C@@H]65)C2)C1 [Compound 20]
IC50 (L1210; Table 1): 55 nM | IC50 (HCT116; Table 1): 70 nM

CCC1(NC(=O)Cc2ccccc2)CC2CN(CCc3c([nH]c4ccccc34)C(C(=O)OC)(c3cc4c(cc3OC)N(C)C3C(O)(C(=O)OC)C(OC(C)=O)C5(CC)C=CCN6CCC43C65)C2)C1 (stereo not shown) [Compound 21]
IC50 (L1210; Table 1): 55 nM | IC50 (HCT116; Table 1): 55 nM

CC[C@]1(NC(=O)C(c2ccccc2)c2ccccc2)C[C@H]2CN(CCc3c([nH]c4ccccc34)[C@@](C(=O)OC)(c3cc4c(cc3OC)N(C)[C@H]3[C@@](O)(C(=O)OC)[C@H](OC(C)=O)[C@]5(CC)C=CCN6CC[C@]43[C@@H]65)C2)C1 [Compound 22]
IC50 (L1210; Table 1): 760 nM | IC50 (HCT116; Table 1): 3800 nM

C=CC(=O)N[C@@]1(CC)C[C@H]2CN(CCc3c([nH]c4ccccc34)[C@@](C(=O)OC)(c3cc4c(cc3OC)N(C)[C@H]3[C@@](O)(C(=O)OC)[C@H](OC(C)=O)[C@]5(CC)C=CCN6CC[C@]43[C@@H]65)C2)C1 [Compound 23]
IC50 (L1210; Table 1): 7 nM | IC50 (L1210; Table 3): 7 nM | IC50 (HCT116; Table 1): 6 nM | IC50 (HCT116; Table 3): 6 nM

CCC1(NC(=O)c2ccc(C)cc2)CC2CN(CCc3c([nH]c4ccccc34)C(C(=O)OC)(c3cc4c(cc3OC)N(C)C3C(O)(C(=O)OC)C(OC(C)=O)C5(CC)C=CCN6CCC43C65)C2)C1 (stereo not shown) [Compound 25]
IC50 (L1210; Table 2): 0.5 nM | IC50 (HCT116; Table 2): 0.45 nM | potency relative to vinblastine (more potent) (HCT116): 10 fold

CC[C@]1(NC(=O)c2cccc(C)c2)C[C@H]2CN(CCc3c([nH]c4ccccc34)[C@@](C(=O)OC)(c3cc4c(cc3OC)N(C)[C@H]3[C@@](O)(C(=O)OC)[C@H](OC(C)=O)[C@]5(CC)C=CCN6CC[C@]43[C@@H]65)C2)C1 [Compound 26]
IC50 (L1210; Table 2): 0.5 nM | IC50 (HCT116; Table 2): 0.7 nM | potency relative to vinblastine (more potent) (HCT116): 10 fold

CC[C@]1(NC(=O)c2ccccc2C)C[C@H]2CN(CCc3c([nH]c4ccccc34)[C@@](C(=O)OC)(c3cc4c(cc3OC)N(C)[C@H]3[C@@](O)(C(=O)OC)[C@H](OC(C)=O)[C@]5(CC)C=CCN6CC[C@]43[C@@H]65)C2)C1 [Compound 27]
IC50 (L1210; Table 2): 55 nM | IC50 (HCT116; Table 2): 50 nM

CC[C@]1(NC(=O)c2cc(C)cc(C)c2)C[C@H]2CN(CCc3c([nH]c4ccccc34)[C@@](C(=O)OC)(c3cc4c(cc3OC)N(C)[C@H]3[C@@](O)(C(=O)OC)[C@H](OC(C)=O)[C@]5(CC)C=CCN6CC[C@]43[C@@H]65)C2)C1 [Compound 29]
IC50 (L1210; Table 2): 5.4 nM | IC50 (HCT116; Table 2): 6 nM

CCc1ccc(C(=O)NC2(CC)CC3CN(CCc4c([nH]c5ccccc45)C(C(=O)OC)(c4cc5c(cc4OC)N(C)C4C(O)(C(=O)OC)C(OC(C)=O)C6(CC)C=CCN7CCC54C76)C3)C2)cc1 (stereo not shown) [Compound 30]
IC50 (L1210; Table 2): 0.65 nM | IC50 (HCT116; Table 2): 0.7 nM | potency relative to vinblastine (more potent) (HCT116): 10 fold

CCc1cc(CC)cc(C(=O)N[C@@]2(CC)C[C@H]3CN(CCc4c([nH]c5ccccc45)[C@@](C(=O)OC)(c4cc5c(cc4OC)N(C)[C@H]4[C@@](O)(C(=O)OC)[C@H](OC(C)=O)[C@]6(CC)C=CCN7CC[C@]54[C@@H]76)C3)C2)c1 [Compound 31]
IC50 (L1210; Table 2): 4.2 nM | IC50 (HCT116; Table 2): 6.4 nM

CC[C@]1(NC(=O)c2ccc(C(C)C)cc2)C[C@H]2CN(CCc3c([nH]c4ccccc34)[C@@](C(=O)OC)(c3cc4c(cc3OC)N(C)[C@H]3[C@@](O)(C(=O)OC)[C@H](OC(C)=O)[C@]5(CC)C=CCN6CC[C@]43[C@@H]65)C2)C1 [Compound 32]
IC50 (L1210; Table 2): 5.4 nM | IC50 (HCT116; Table 2): 6.4 nM

CCC1(NC(=O)c2cccc(C(C)C)c2)CC2CN(CCc3c([nH]c4ccccc34)C(C(=O)OC)(c3cc4c(cc3OC)N(C)C3C(O)(C(=O)OC)C(OC(C)=O)C5(CC)C=CCN6CCC43C65)C2)C1 (stereo not shown) [Compound 33]
IC50 (L1210; Table 2): 7.5 nM | IC50 (HCT116; Table 2): 8.7 nM

CCCc1ccc(C(=O)NC2(CC)CC3CN(CCc4c([nH]c5ccccc45)C(C(=O)OC)(c4cc5c(cc4OC)N(C)C4C(O)(C(=O)OC)C(OC(C)=O)C6(CC)C=CCN7CCC54C76)C3)C2)cc1 (stereo not shown) [Compound 34]
IC50 (L1210; Table 2): 4.3 nM | IC50 (HCT116; Table 2): 4.8 nM

CCCCc1ccc(C(=O)N[C@@]2(CC)C[C@H]3CN(CCc4c([nH]c5ccccc45)[C@@](C(=O)OC)(c4cc5c(cc4OC)N(C)[C@H]4[C@@](O)(C(=O)OC)[C@H](OC(C)=O)[C@]6(CC)C=CCN7CC[C@]54[C@@H]76)C3)C2)cc1 [Compound 35]
IC50 (L1210; Table 2): 30 nM | IC50 (HCT116; Table 2): 20 nM

CC[C@]1(NC(=O)c2ccc(CC(C)C)cc2)C[C@H]2CN(CCc3c([nH]c4ccccc34)[C@@](C(=O)OC)(c3cc4c(cc3OC)N(C)[C@H]3[C@@](O)(C(=O)OC)[C@H](OC(C)=O)[C@]5(CC)C=CCN6CC[C@]43[C@@H]65)C2)C1 [Compound 36]
IC50 (L1210; Table 2): 25 nM | IC50 (HCT116; Table 2): 10 nM

CCC(C)c1ccc(C(=O)N[C@@]2(CC)C[C@H]3CN(CCc4c([nH]c5ccccc45)[C@@](C(=O)OC)(c4cc5c(cc4OC)N(C)[C@H]4[C@@](O)(C(=O)OC)[C@H](OC(C)=O)[C@]6(CC)C=CCN7CC[C@]54[C@@H]76)C3)C2)cc1 (stereo partly shown) [Compound 37]
IC50 (L1210; Table 2): 25 nM | IC50 (HCT116; Table 2): 15 nM

CC[C@]1(NC(=O)c2ccc(C(C)(C)C)cc2)C[C@H]2CN(CCc3c([nH]c4ccccc34)[C@@](C(=O)OC)(c3cc4c(cc3OC)N(C)[C@H]3[C@@](O)(C(=O)OC)[C@H](OC(C)=O)[C@]5(CC)C=CCN6CC[C@]43[C@@H]65)C2)C1 [Compound 38]
IC50 (L1210; Table 2): 0.6 nM | IC50 (HCT116; Table 2): 1.9 nM

CCC1(NC(=O)c2ccc(C(F)(F)F)cc2)CC2CN(CCc3c([nH]c4ccccc34)C(C(=O)OC)(c3cc4c(cc3OC)N(C)C3C(O)(C(=O)OC)C(OC(C)=O)C5(CC)C=CCN6CCC43C65)C2)C1 (stereo not shown) [Compound 39]
IC50 (L1210; Table 2): 4.3 nM | IC50 (HCT116; Table 2): 3.3 nM

CC[C@]1(NC(=O)c2cccc(C(F)(F)F)c2)C[C@H]2CN(CCc3c([nH]c4ccccc34)[C@@](C(=O)OC)(c3cc4c(cc3OC)N(C)[C@H]3[C@@](O)(C(=O)OC)[C@H](OC(C)=O)[C@]5(CC)C=CCN6CC[C@]43[C@@H]65)C2)C1 [Compound 40]
IC50 (L1210; Table 2): 6.2 nM | IC50 (HCT116; Table 2): 6.4 nM

CCC1(NC(=O)c2ccccc2C(F)(F)F)CC2CN(CCc3c([nH]c4ccccc34)C(C(=O)OC)(c3cc4c(cc3OC)N(C)C3C(O)(C(=O)OC)C(OC(C)=O)C5(CC)C=CCN6CCC43C65)C2)C1 (stereo not shown) [Compound 41]
IC50 (L1210; Table 2): 45 nM | IC50 (HCT116; Table 2): 60 nM

CCC1(NC(=O)c2ccc(-c3ccccc3)cc2)CC2CN(CCc3c([nH]c4ccccc34)C(C(=O)OC)(c3cc4c(cc3OC)N(C)C3C(O)(C(=O)OC)C(OC(C)=O)C5(CC)C=CCN6CCC43C65)C2)C1 (stereo not shown) [Compound 42]
IC50 (L1210; Table 2): 5.5 nM | IC50 (HCT116; Table 2): 5.4 nM

CCC1(NC(=O)c2ccc(C3CCCCC3)cc2)CC2CN(CCc3c([nH]c4ccccc34)C(C(=O)OC)(c3cc4c(cc3OC)N(C)C3C(O)(C(=O)OC)C(OC(C)=O)C5(CC)C=CCN6CCC43C65)C2)C1 (stereo not shown) [Compound 43]
IC50 (L1210; Table 2): 40 nM | IC50 (HCT116; Table 2): 30 nM

CC[C@]1(NC(=O)c2ccc(F)cc2)C[C@H]2CN(CCc3c([nH]c4ccccc34)[C@@](C(=O)OC)(c3cc4c(cc3OC)N(C)[C@H]3[C@@](O)(C(=O)OC)[C@H](OC(C)=O)[C@]5(CC)C=CCN6CC[C@]43[C@@H]65)C2)C1 [Compound 44]
IC50 (L1210; Table 2): 1.8 nM | IC50 (HCT116; Table 2): 1.4 nM

CC[C@]1(NC(=O)c2cccc(F)c2)C[C@H]2CN(CCc3c([nH]c4ccccc34)[C@@](C(=O)OC)(c3cc4c(cc3OC)N(C)[C@H]3[C@@](O)(C(=O)OC)[C@H](OC(C)=O)[C@]5(CC)C=CCN6CC[C@]43[C@@H]65)C2)C1 [Compound 45]
IC50 (L1210; Table 2): 5.7 nM | IC50 (HCT116; Table 2): 5.3 nM
